Measured values from patent publication US9969823B1, “Synthesis and polymerization of vinyl triazolium ionic liquids” (United States Department of Energy, priority 2011, dated 2018).
Where two headings read alike, the source gives them in different places.

Experiment: Solubility of ionic liquid monomers (IL) and their polymers (PIL) in solvents
Type: physicochemical
Conditions: for solubility: 10 mg/ml, IL (monomer), first symbol; for solubility in water: IL monomers
[1] = organic solvent or mixture, ACN, read-out: Solubility (IL/PIL) ACN
[2] = organic solvent or mixture, Acetone, read-out: Solubility (IL/PIL) Acetone
[3] = organic solvent or mixture, DCM, read-out: Solubility (IL/PIL) DCM
[4] = organic solvent or mixture, DMF, read-out: Solubility (IL/PIL) DMF
[5] = organic solvent or mixture, DMSO, read-out: Solubility (IL/PIL) DMSO
[6] = organic solvent or mixture, Ethyl acetate, read-out: Solubility (IL/PIL) Ethyl acetate
[7] = organic solvent or mixture, Hexanes, read-out: Solubility (IL/PIL) Hexanes
[8] = organic solvent or mixture, MeOH, read-out: Solubility (IL/PIL) MeOH
[9] = water, H2O, read-out: Solubility (IL/PIL) H2O

Row | SMILES | solubility [1] | solubility [2] | solubility [3] | solubility [4] | solubility [5] | solubility [6] | solubility [7] | solubility [8] | solubility [9] | solubility in water (water)
1 | C=Cc1cn(CCCCCCCCCC)n[n+]1C [DMVT, 1-Decyl-3-methyl-4-vinyl-triazolium bis(trifluoromethansulfonyl)amide] | > 10000 µg/mL | > 10000 µg/mL | < 10000 µg/mL | > 10000 µg/mL | > 10000 µg/mL | > 10000 µg/mL | < 10000 µg/mL | > 10000 µg/mL | < 10000 µg/mL | 
2 | C=Cc1cn(CCCCCC)n[n+]1C [HMVT, 1-Hexyl-3-methyl-4-vinyl-triazolium bis(trifluoromethansulfonyl)amide] | > 10000 µg/mL | > 10000 µg/mL | > 10000 µg/mL | > 10000 µg/mL | > 10000 µg/mL | > 10000 µg/mL | < 10000 µg/mL | > 10000 µg/mL | < 10000 µg/mL | 
3 | C=Cc1cn(CCOCCOCCOC)n[n+]1C [TEGMVT, 1-TEG-3-methyl-4-vinyl-triazolium bis(trifluoromethansulfonyl)amide] | > 10000 µg/mL | > 10000 µg/mL | > 10000 µg/mL | > 10000 µg/mL | > 10000 µg/mL | > 10000 µg/mL | < 10000 µg/mL | > 10000 µg/mL | > 10000 µg/mL | soluble

Continued, values first:

Row | solubility [1] | solubility [2] | solubility [3] | solubility [4] | solubility [5] | solubility [6] | solubility [7] | solubility [8] | solubility [9] | solubility in water (water) | SMILES
4 | > 10000 µg/mL | > 10000 µg/mL | > 10000 µg/mL | > 10000 µg/mL | > 10000 µg/mL | > 10000 µg/mL | < 10000 µg/mL | > 10000 µg/mL | < 10000 µg/mL |  | C=Cc1cn(Cc2ccccc2)n[n+]1C [BMVT Tf2N, 1-Benzyl-3-methyl-4-vinyl-triazolium bis(trifluoromethansulfonyl)amide]
5 | > 10000 µg/mL | > 10000 µg/mL | > 10000 µg/mL | > 10000 µg/mL | > 10000 µg/mL | > 10000 µg/mL | < 10000 µg/mL | > 10000 µg/mL | > 10000 µg/mL | soluble | C=Cc1cn(CCO)n[n+]1C [EtOHMVT, 2-(3-Methyl-4vinyl-triazolium-1-yl)ethanol bis(trifluoromethansulfonyl)amide]
6 | > 10000 µg/mL | > 10000 µg/mL | > 10000 µg/mL | > 10000 µg/mL | > 10000 µg/mL | > 10000 µg/mL | < 10000 µg/mL | > 10000 µg/mL | < 10000 µg/mL |  | C=Cc1cn(-c2ccccc2)n[n+]1C [PMVT Tf2N, 1-Phenyl-3-methyl-4-vinyl-triazolium bis(trifluoromethansulfonyl)amide]
